Reference: US20090036444A1, “5-5-Membered fused heterocyclic compound and use thereof as HCV polymerase inhibitor” (priority 2003, published 2009)
Structures can show the parent of a compound that is named as a salt. Where two headings read alike, the source gives them in different places.

How the values were obtained:
[1] = target: T1, HCV polymerase H544 1a 3X (UniProt P27958); assay: Assay of enzyme (HCV polymerase) inhibitory activity, H544 1a 3X; assay type: biochemical
T1 construct: fused on or other part: 6 His tag at the C-terminus, for the BK (1b) enzyme

[2] = target: T2, HCV polymerase H544 1b 3X (Hepatitis C virus genotype 1b, UniProt P26663); assay: Assay of enzyme (HCV polymerase) inhibitory activity, H544 1b 3X; assay type: biochemical, HCV BK strain
T2 construct: a region encoding NS5B (J Virol 1991 March, 65(3), 1105-13, 544 amino acids after deletion of 47 amino acids on the C-terminal); 6 His (C); made in house; host or cells: Escherichia coli
From the text: The evaluation of the HCV polymerase inhibitory activity of the compound of the present invention is explained in the following. This polymerase is an enzyme coded for by the non-structural protein region called NS5B on the genome RNA of HCV (EMBO J., 15:12-22, 1996).
Using, as a template, a cDNA clone corresponding to the full length genome RNA of HCV BK strain obtained from the blood of a patient with hepatitis C, a region encoding NS5B (J Virol 1991 March, 65(3), 1105-13, 544 amino acids after deletion of 47 amino acids on the C-terminal) was amplified by PCR. The objective gene was prepared by adding a 6 His tag {base pair encoding 6 continuous histidine (His)} to the 3′ end thereof and transformed to Escherichia coli. The Escherichia coli capable of producing the objective protein was cultured. The obtained cells were suspended in a buffer solution and crushed in a microfluidizer. The supernatant was obtained by centrifugation and applied to various column chromatographys {mono-S, Sephacryl S-200 (Pharmacia)}, inclusive of metal chelate chromatography, to give a standard enzyme product.
Using a synthetic primer designed based on the sequence of HCV genomic 3′ untranslated region, a DNA fragment (148 bp) containing polyU and 3′X sequence was entirely synthesized and cloned into plasmid pBluescript SK II (+) (Stratagene). The cDNA encoding full length NS5B, which was prepared in i) above, was digested with restriction enzyme KpnI to give a cDNA fragment containing the nucleotide sequence of from the restriction enzyme cleavage site to the termination codon. This cDNA fragment was inserted into the upstream of 3′ untranslated region of the DNA in pBluescript SK II(+) and ligated. The about 450 bp inserted DNA sequence was used as a template in the preparation of substrate RNA. This plasmid was cleaved immediately after the 3′X sequence, linearized and purified by phenol-chloroform treatment and ethanol precipitation to give DNA.
RNA was synthesized (37° C., 3 hr) by run-off method using this purified DNA as a template, a promoter of pBluescript SK II(+), MEGAscript RNA synthesis kit (Ambion) and T7 RNA polymerase. DNase I was added and the mixture was incubated for 1 hr. The template DNA was removed by decomposition to give a crude RNA product. This crude product was treated with phenol-chloroform and purified by ethanol precipitation to give the objective substrate RNA.
This RNA was applied to formaldehyde denaturation agarose gel electrophoresis to confirm the quality thereof and preserved at −80° C.
A test substance (compound of the present invention) and a reaction mixture (30 μl) having the following composition were reacted at 25° C. for 90 min. 10% Trichloroacetic acid at 4° C. and 1% sodium pyrophosphate solution (150 μl) were added to this reaction mixture to stop the reaction. The reaction mixture was left standing in ice for 15 min to insolubilize RNA. This RNA was trapped on a glass filter (Whatman GF/C and the like) upon filtration by suction. This filter was washed with a solution containing 1% trichloroacetic acid and 0.1% sodium pyrophosphate, washed with 90% ethanol and dried. A liquid scintillation cocktail (Packard) was added and the radioactivity of RNA synthesized by the enzyme reaction was measured on a liquid scintillation counter.
The HCV polymerase inhibitory activity (IC50) of the compound of the present invention was calculated from the values of radioactivity of the enzyme reaction with and without the test substance.
The results are shown in Table 18, wherein each symbol means that IC50 falls within the following range.
Reaction mixture: HCV polymerase (0.5 μg/ml) obtained in i), substrate RNA (5 μg/ml) obtained in ii), ATP (50 μM), GTP (50 μM), CTP (50 μM), UTP (2 μM), [5,6-^3H] UTP (46 Ci/mmol (Amersham), 1 μCi) 20 mM Tris-HCl (pH 7.5), EDTA (1 mM), MgCl2 (5 mM), NaCl (50 mM), DTT (1 mM), BSA (0.01%)

[3] = 25° C., 90 min, [5,6-3H]UTP incorporation, read-out: H544 1a 3X IC50
[4] = read-out: H544 1a 3X IC50, 25° C., 90 min, [5,6-3H]UTP incorporation

T2 sequence (P26663 2420-2963): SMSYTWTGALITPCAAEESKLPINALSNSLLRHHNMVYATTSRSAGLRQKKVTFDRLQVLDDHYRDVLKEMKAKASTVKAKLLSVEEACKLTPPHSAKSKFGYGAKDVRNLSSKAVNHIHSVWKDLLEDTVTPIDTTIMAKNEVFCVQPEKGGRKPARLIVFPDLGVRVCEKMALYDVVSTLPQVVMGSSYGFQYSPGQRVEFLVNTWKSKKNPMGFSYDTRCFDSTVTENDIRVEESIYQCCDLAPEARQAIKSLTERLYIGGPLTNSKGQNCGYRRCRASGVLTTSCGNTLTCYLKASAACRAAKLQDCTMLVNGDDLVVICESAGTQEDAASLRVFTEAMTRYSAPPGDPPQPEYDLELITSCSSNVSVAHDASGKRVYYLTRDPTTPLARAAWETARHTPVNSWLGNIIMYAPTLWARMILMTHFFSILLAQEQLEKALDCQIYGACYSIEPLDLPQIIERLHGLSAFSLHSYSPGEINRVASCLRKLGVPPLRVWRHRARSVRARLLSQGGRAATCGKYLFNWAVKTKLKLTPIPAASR

| SMILES | IC50 [1, 3] [nM] | IC50 [2] [nM] | IC50 [1, 4] [nM] |
| --- | --- | --- | --- |
| COc1ccc(-c2c(C3CCCCC3)c3sc(C(=O)O)cc3n2CC(=O)N(C)C)cc1 [Example 21, 6-cyclohexyl-4-dimethylcarbamoylmethyl-5-(4-methoxyphenyl)-4H-thieno[3,2-b]pyrrole-2-carboxylic acid] | 100 to 1000 | < 100 | – |
| O=C(O)c1cc2c(s1)c(C1CCCCC1)c(-c1ccc(OCc3ccccc3)cc1)n2CCN1CCOCC1 [Example 47, 5-(4-benzyloxyphenyl)-6-cyclohexyl-4-(2-morpholinoethyl)-4H-thieno[3,2-b]pyrrole-2-carboxylic acid] | 100 to 1000 | 100 to 1000 | – |
| CN(CC(=O)N1CCCCC1)C(=O)Cn1c(-c2ccc(OCc3ccccc3)cc2)c(C2CCCCC2)c2sc(C(=O)O)cc21 [Example 50, 5-(4-benzyloxyphenyl)-6-cyclohexyl-4-{[N-methyl-N-(2-oxo-2-piperidinoethyl)carbamoyl]methyl}-4H-thieno[3,2-b]pyrrole-2-carboxylic acid] | < 100 | < 100 | – |
| CN(C)C(=O)Cn1c(-c2ccc(OCc3ccccc3N3CCOCC3)cc2)c(C2CCCCC2)c2sc(C(=O)O)cc21 [Example 38, 6-cyclohexyl-4-dimethylcarbamoylmethyl-5-[4-(2-morpholinobenzyloxy)phenyl]-4H-thieno[3,2-b]pyrrole-2-carboxylic acid] | < 100 | < 100 | – |
| COc1ccc(-c2c(C3CCCCC3)c3sc(C(=O)O)cc3n2CC(=O)NC(C)(C)C)cc1 [Example 33, 4-(tert-butylcarbamoylmethyl)-6-cyclohexyl-5-(4-methoxyphenyl)-4H-thieno[3,2-b]pyrrole-2-carboxylic acid] | < 100 | 100 to 1000 | – |
| COc1ccc(-c2c(C3CCCCC3)c3sc(C(=O)O)cc3n2CC(=O)N2CCC(N(C)C)CC2)cc1 [Example 27, 6-cyclohexyl-4-(4-dimethylaminopiperidino)carbonylmethyl-5-(4-methoxyphenyl)-4H-thieno[3,2-b]pyrrole-2-carboxylic acid] | < 100 | < 100 | – |
| CC(C)C(=O)Nc1ccc(N2CCOCC2)c(COc2ccc(-c3c(C4CCCCC4)c4sc(C(=O)O)cc4n3C)cc2)c1 [Example 29, 6-cyclohexyl-5-[4-(5-isobutyrylamino-2-morpholinobenzyloxy)phenyl]-4-methyl-4H-thieno[3,2-b]pyrrole-2-carboxylic acid hydrochloride] | < 100 | < 100 | – |
| Cn1c(-c2ccc(OCc3ccc(N4CCCC4=O)cc3N3CCOCC3)cc2)c(C2CCCCC2)c2sc(C(=O)O)cc21 [Example 34, 6-cyclohexyl-4-methyl-5-{4-[2-morpholino-4-(2-oxopyrrolidin-1-yl)benzyloxy]phenyl}-4H-thieno[3,2-b]pyrrole-2-carboxylic acid hydrochloride] | < 100 | < 100 | – |
| CCOC(=O)c1cc2c(s1)c(C1CCCCC1)c(-c1ccc(OCc3cc(N4CCCC4=O)ccc3N3CCOCC3)cc1)n2C [Example 24, ethyl 6-cyclohexyl-4-methyl-5-{4-[2-morpholino-5-(2-oxopyrrolidin-1-yl)benzyloxy]phenyl}-4H-thieno[3,2-b]pyrrole-2-carboxylate hydrochloride] | 100 to 1000 | 100 to 1000 | – |
| CC(C)C(=O)N(C)c1ccc(N2CCOCC2)c(COc2ccc(-c3c(C4CCCCC4)c4sc(C(=O)O)cc4n3C)cc2)c1 [Example 30, 6-cyclohexyl-5-{4-[5-(N-isobutyryl-N-methylamino)-2-morpholinobenzyloxy]phenyl}-4-methyl-4H-thieno[3,2-b]pyrrole-2-carboxylic acid hydrochloride] | < 100 | < 100 | – |
| CN(C)CCn1c(-c2ccc(OCc3cc(S(C)(=O)=O)ccc3N3CCOCC3)cc2)c(C2CCCCC2)c2sc(C(=O)O)cc21 [Example 56, 6-cyclohexyl-4-(2-dimethylaminoethyl)-5-[4-(5-methanesulfonyl-2-morpholinobenzyloxy)phenyl]-4H-thieno[3,2-b]pyrrole-2-carboxylic acid dihydrochloride] | – | < 100 | < 100 |
| O=C(O)c1cc2nc(-c3ccc(OCc4cc(N5CCCC5=O)ccc4-c4ccc(Cl)cc4)cc3)n(C3CCCCC3)c2s1 [Example 3, 2-{4-[4′-chloro-4-(2-oxopyrrolidin-1-yl)biphenyl-2-ylmethoxy]phenyl}-3-cyclohexyl-3H-thieno[2,3-d]imidazole-5-carboxylic acid hydrochloride] | – | < 100 | 100 to 1000 |
| O=C(O)c1cc2c(s1)c(C1CCCCC1)c(-c1ccc(OCc3ccccc3)cc1)n2CCN1CCC(N2CCCCC2)CC1 [Example 55, 5-(4-benzyloxyphenyl)-4-[2-(1,4′-bipiperidinyl-1′-yl)ethyl]-6-cyclohexyl-4H-thieno[3,2-b]pyrrole-2-carboxylic acid dihydrochloride] | 100 to 1000 | 100 to 1000 | – |
| CN(C)C(=O)Cn1c(-c2ccc(OCc3ccccc3)cc2)c(C2CCCCC2)c2sc(C(=O)O)cc21 [Example 14, 5-(4-benzyloxyphenyl)-6-cyclohexyl-4-dimethylcarbamoylmethyl-4H-thieno[3,2-b]pyrrole-2-carboxylic acid] | < 100 | < 100 | – |
| CC(C)(C)NC(=O)Cn1c(-c2ccc(OCc3ccccc3)cc2)c(C2CCCCC2)c2sc(C(=O)O)cc21 [Example 44, 5-(4-benzyloxyphenyl)-4-(tert-butylcarbamoylmethyl)-6-cyclohexyl-4H-thieno[3,2-b]pyrrole-2-carboxylic acid] | 100 to 1000 | 100 to 1000 | – |
| CN(C)C(=O)Cn1c(-c2ccccc2OCc2ccccc2)c(C2CCCCC2)c2sc(C(=O)O)cc21 [Example 36, 5-(2-benzyloxyphenyl)-6-cyclohexyl-4-dimethylcarbamoylmethyl-4H-thieno[3,2-b]pyrrole-2-carboxylic acid] | 100 to 1000 | 100 to 1000 | – |
| O=C(Cn1c(-c2ccc(OCc3ccccc3)cc2)c(C2CCCCC2)c2sc(C(=O)O)cc21)Nc1ccc(N2CCOCC2)cc1 [Example 51, 5-(4-benzyloxyphenyl)-6-cyclohexyl-4-[(4-morpholinophenylcarbamoyl)methyl]-4H-thieno[3,2-b]pyrrole-2-carboxylic acid hydrochloride] | < 100 | < 100 | – |
| CC(=O)N(C)c1ccc(N2CCN(S(C)(=O)=O)CC2)c(COc2ccc(-c3c(C4CCCCC4)c4sc(C(=O)O)cc4n3C)cc2)c1 [Example 20, 5-{4-[5-(N-acetyl-N-methylamino)-2-(4-methanesulfonylpiperazin-1-yl)benzyloxy]phenyl}-6-cyclohexyl-4-methyl-4H-thieno[3,2-b]pyrrole-2-carboxylic acid hydrochloride] | < 100 | < 100 | – |
| CC(C(=O)N(C)c1ccc(N2CCOCC2)cc1)n1c(-c2ccc(OCc3ccccc3)cc2)c(C2CCCCC2)c2sc(C(=O)O)cc21 (stereo not shown) [Example 60, 5-(4-benzyloxyphenyl)-6-cyclohexyl-4-{1-[N-methyl-N-(4-morpholinophenyl)carbamoyl]ethyl}-4H-thieno[3,2-b]pyrrole-2-carboxylic acid hydrochloride] | – | 100 to 1000 | – |
